From EP1105395B1, “PHOTOCYCLIZED RAPAMYCINS” (priority 1998, dated 2000) come the findings set out here.

Molecules are shown by their SMILES. Values after ≈ are worked out from the molar mass of the structure shown. Read-outs that look alike come from different tables or passages of the source.

Holding throughout (experiment): Antifungal activity, microtiter broth dilution MIC
Common to all, as to assay type: cell-based
A general note: Dilution methods test growth across graded concentrations, often in twofold steps.

The subject of one experiment is Candida pseudotropicalis. As to conditions: Candida pseudotropicalis ID ATCC 28838, 35 °C, 24-48 hours. On the procedure: (§1) Antifungal activity for the compounds of this invention was established by evaluating a representative compound of this invention (Compound I) against several strains of fungi. Briefly the following procedure was used to evaluate such activity. A 96 U-bottom microtiter plate was filled (50 µl/well) with RPMI 1640. The compounds to be evaluated were placed in appropriate wells, and serial diluted in successive wells to provide 11 dilutions. The concentrations ranged from 64 through 0.06 µg/ml. An adjusted inoculum of fungi (50 µl) was added to each well and the plates were incubated at 35 °C for 24-48 hours. […]

The test system of a further experiment is Saccharomyces cerevisiae. To be noted: Saccharomyces cerevisiae ID ATCC 2601, 35 °C, 24-48 hours. On the procedure: as §1
The next experiment concerns Cryptococcus neoformans. To be noted: Cryptococcus neoformans ID ATCC 90112, 35 °C, 24-48 hours. On the procedure:
as §1

A further experiment deals with Aspergillus niger. To be noted: Aspergillus niger ID S-430, 35 °C, 24-48 hours. On the procedure: as §1
In another experiment the test system is Candida parapsilosis. As to conditions: 35 °C, 24-48 hours. How it is done: as §1
The test system of another experiment is Candida krussii. To be noted: Candida krussii ID 94-2, 35 °C, 24-48 hours. On the procedure: as §1
The next experiment concerns Aspergillus flavus. As to conditions: Aspergillus flavus ID ATCC 12963, 35 °C, 24-48 hours. On the procedure: as §1
Experiment [1] relates to Filobasidiella neoformans. As to conditions: Filobasidiella neoformans ID ATCC 7472, 35 °C, 24-48 hours. How it is done:
as §1

Another experiment concerns Candida tropicalis. As to conditions: 35 °C, 24-48 hours. On the procedure:
as §1

For a further experiment, the system named is Aspergillus fumigatus. As to conditions: Aspergillus fumigatus ID ATCC 26933, 35 °C, 24-48 hours. How it is done:
as §1

The subject of another experiment is Candida lusitaniae. As to conditions: Candida lusitaniae ID 94-3, 35 °C, 24-48 hours. How it is done:
as §1

For a further experiment, the system named is Candida zeylanoided. To be noted: Candida zeylanoided ID 94-15, 35 °C, 24-48 hours. On the procedure:
as §1

In the next experiment the test system is Candida glabrata. As to conditions: Candida glabrata ID ATCC 90030, 35 °C, 24-48 hours. On the procedure: as §1
In a further experiment the test system is Candida rugosa. To be noted: Candida rugosa ID 94-10, 35 °C, 24-48 hours. On the procedure: as §1
A further experiment deals with Candida albicans. As to conditions: 35 °C, 24-48 hours. How it is done:
as §1

Where [2] appears, read: Candida parapsilosis ID ATCC 90018.
The mark [3] stands for this setting: Kluyveromyces marxianus, ATCC28838, read-out: MIC.
Setting [4] is: Lodderomyces parapsilosis, ATCC90018, Candida parapsilosis ID ATCC 90018, read-out: MIC.
[5] abbreviates: Lodderomyces parapsilosis, Candida parapsilosis ID 94-8, read-out: MIC.
[6] abbreviates: Lodderomyces parapsilosis, Candida parapsilosis ID 94-9, read-out: MIC.
The mark [7] stands for this setting: Cryptococcus neoformans, ATCC7472, read-out: MIC.
Where [8] appears, read: Candida tropicalis ID 94-14, read-out: MIC.
The mark [9] stands for this setting: Clavispora lusitaniae, read-out: MIC.
[10] abbreviates: Nakaseomyces glabratus, ATCC90030, read-out: MIC.
The mark [11] stands for this setting: Candida albicans, ATCC90028, Candida albicans ID ATCC 90028, read-out: MIC.
Setting [12] is: Candida albicans, Candida albicans ID 94-1, read-out: MIC.
[13] abbreviates: Candida albicans, Candida albicans ID 1063, read-out: MIC.
The mark [14] stands for this setting: Candida albicans, Candida albicans ID 1117, read-out: MIC.
Setting [15] is: Candida albicans, Candida albicans ID C-83, read-out: MIC.

Turning to `C[C@@H]1[C@H](O)[C@@H](C)/C=C/C=C/C=C/C=C/C=C/C=C/C=C/[C@H](O[C@@H]2O[C@H](C)[C@@H](O)[C@H](N)[C@@H]2O)C[C@@H]2O[C@](O)(C[C@@H](O)C[C@@H](O)[C@H](O)CC[C@@H](O)C[C@@H](O)CC(=O)O[C@H]1C)C[C@H](O)[C@H]2C(=O)O` [Amphtericin B], the MIC in the experiment with Candida pseudotropicalis was 0.25 µg/mL (≈ 0.271 µM); against Saccharomyces cerevisiae, not above 0.12 µg/mL; with Cryptococcus neoformans, not above 0.12 µg/mL; against Aspergillus niger it was 0.25 µg/mL (≈ 0.271 µM); against Candida parapsilosis (Candida parapsilosis ID 94-8), 0.25 µg/mL (≈ 0.271 µM); in the experiment with Candida parapsilosis (Candida parapsilosis ID 94-9), 0.5 µg/mL (≈ 0.541 µM). The MIC in the experiment on Candida parapsilosis (setting [2]) was not above 0.12 µg/mL; against Candida krussii, 0.5 µg/mL (≈ 0.541 µM); against Aspergillus flavus it was 2 µg/mL (≈ 2.16 µM); in [1] it was 0.12 µg/mL (≈ 0.13 µM); in the experiment on Candida tropicalis (Candida tropicalis ID 94-13) it was 0.25 µg/mL (≈ 0.271 µM); against Candida tropicalis (Candida tropicalis ID 94-14), 0.25 µg/mL (≈ 0.271 µM). For the same compound, the MIC with Aspergillus fumigatus was 0.25 µg/mL (≈ 0.271 µM); against Candida lusitaniae it was not above 0.12 µg/mL; against Candida zeylanoided it was 0.25 µg/mL (≈ 0.271 µM); in the experiment on Candida glabrata, 0.25 µg/mL (≈ 0.271 µM); against Candida rugosa, 0.25 µg/mL (≈ 0.271 µM); in the experiment with Candida albicans (Candida albicans ID 94-1) it was not above 0.12 µg/mL. Also, the MIC in the experiment with Candida albicans (Candida albicans ID 1063), in the experiment on Candida albicans (Candida albicans ID 1117), in the experiment on Candida albicans (Candida albicans ID ATCC 90028) and with Candida albicans (Candida albicans ID C-83) was 0.25 µg/mL (≈ 0.271 µM) in each case.

Regarding `OC(Cn1cncn1)(Cn1cncn1)c1ccc(F)cc1F` [Fluconazole], the MIC is not above 0.12 µg/mL in the experiment with Candida pseudotropicalis (setting [3]); 8 µg/mL (≈ 26.1 µM) in the experiment on Saccharomyces cerevisiae (ATCC2601, read-out: MIC); 8 µg/mL (≈ 26.1 µM) in the experiment with Cryptococcus neoformans (ATCC90112, read-out: MIC); more than 16 µg/mL with Aspergillus niger (read-out: MIC); 0.5 µg/mL (≈ 1.63 µM) with Candida parapsilosis (setting [4]); 0.5 µg/mL (≈ 1.63 µM) in the experiment with Candida parapsilosis (setting [5]). In addition, the MIC in the experiment on Candida parapsilosis (setting [6]) was 0.5 µg/mL (≈ 1.63 µM); in the experiment with Candida krussii (read-out: MIC), not below 16 µg/mL; with Aspergillus flavus (ATCC12963, read-out: MIC), more than 16 µg/mL; in [1] (setting [7]), 16 µg/mL (≈ 52.2 µM); in the experiment with Candida tropicalis (Candida tropicalis ID 94-13), not below 16 µg/mL; in the experiment with Candida tropicalis (setting [8]) it was not below 16 µg/mL. Also, the MIC in the experiment with Aspergillus fumigatus (ATCC26933, read-out: MIC) was more than 16 µg/mL; in the experiment on Candida lusitaniae (setting [9]), 1 µg/mL (≈ 3.27 µM); in the experiment on Candida zeylanoided (read-out: MIC), not below 16 µg/mL; in the experiment with Candida glabrata (setting [10]) it was 4 µg/mL (≈ 13.1 µM); in the experiment with Candida rugosa (Diutina rugosa, read-out: MIC), 2 µg/mL (≈ 6.53 µM); with Candida albicans (setting [11]), not below 16 µg/mL. Further, the MIC in the experiment with Candida albicans (setting [12]) was not below 16 µg/mL; in the experiment on Candida albicans (setting [13]), 4 µg/mL (≈ 13.1 µM); with Candida albicans (setting [14]), 8 µg/mL (≈ 26.1 µM); in the experiment on Candida albicans (setting [15]) it was not below 16 µg/mL.

Turning to `Clc1ccc(COC(Cn2ccnc2)c2ccc(Cl)cc2Cl)c(Cl)c1` (stereo not shown) [Miconazole], the MIC in the experiment with Candida pseudotropicalis (setting [3]) was not above 0.12 µg/mL; in the experiment on Saccharomyces cerevisiae (ATCC2601, read-out: MIC) it was not above 0.12 µg/mL; with Cryptococcus neoformans (ATCC90112, read-out: MIC) it was not above 0.12 µg/mL; in the experiment with Aspergillus niger (read-out: MIC), 4 µg/mL (≈ 9.61 µM); in the experiment with Candida parapsilosis (setting [4]) it was not above 0.12 µg/mL; with Candida parapsilosis (setting [5]), 0.25 µg/mL (≈ 0.601 µM). Also, the MIC was determined as 0.5 µg/mL (≈ 1.2 µM) in the experiment with Candida parapsilosis (setting [6]); 2 µg/mL (≈ 4.81 µM) in the experiment with Candida krussii (read-out: MIC); 0.5 µg/mL (≈ 1.2 µM) with Aspergillus flavus (ATCC12963, read-out: MIC); 0.25 µg/mL (≈ 0.601 µM) in experiment [1] (setting [7]); 4 µg/mL (≈ 9.61 µM) against Candida tropicalis (Candida tropicalis ID 94-13); 4 µg/mL (≈ 9.61 µM) in the experiment on Candida tropicalis (setting [8]). Also, the MIC was 1 µg/mL (≈ 2.4 µM) with Aspergillus fumigatus (ATCC26933, read-out: MIC); not above 0.12 µg/mL with Candida lusitaniae (setting [9]); 0.25 µg/mL (≈ 0.601 µM) in the experiment on Candida zeylanoided (read-out: MIC); not above 0.12 µg/mL in the experiment on Candida glabrata (setting [10]); not above 0.12 µg/mL in the experiment with Candida rugosa (Diutina rugosa, read-out: MIC); 0.5 µg/mL (≈ 1.2 µM) in the experiment with Candida albicans (setting [11]). For the same compound, the MIC in the experiment on Candida albicans (setting [12]) was 8 µg/mL (≈ 19.2 µM); in the experiment with Candida albicans (setting [13]), 1 µg/mL (≈ 2.4 µM); in the experiment on Candida albicans (setting [14]) it was 1 µg/mL (≈ 2.4 µM); with Candida albicans (setting [15]) it was 8 µg/mL (≈ 19.2 µM).

As for `C[C@@H]1[C@H](O)[C@@H](C)/C=C/C=C/CC/C=C/C=C/C=C/C=C/C(O[C@H]2O[C@H](C)[C@@H](O)[C@H](N)[C@@H]2O)CC2O[C@](O)(CC(O)C(O)CCC(O)CC(O)CC(O)CC(=O)O[C@H]1C)CC(O)C2C(=O)O` (stereo partly shown) [Nystatin], the MIC amounted to 1 µg/mL (≈ 1.08 µM) with Candida pseudotropicalis; 2 µg/mL (≈ 2.16 µM) with Saccharomyces cerevisiae; 0.5 µg/mL (≈ 0.54 µM) in the experiment on Cryptococcus neoformans; 4 µg/mL (≈ 4.32 µM) in the experiment with Aspergillus niger; 1 µg/mL (≈ 1.08 µM) against Candida parapsilosis (Candida parapsilosis ID 94-8); 1 µg/mL (≈ 1.08 µM) against Candida parapsilosis (Candida parapsilosis ID 94-9). Moreover, the MIC in the experiment on Candida parapsilosis (setting [2]) is 1 µg/mL (≈ 1.08 µM); against Candida krussii, 2 µg/mL (≈ 2.16 µM); in the experiment on Aspergillus flavus, not below 16 µg/mL; in experiment [1], 0.5 µg/mL (≈ 0.54 µM); against Candida tropicalis (Candida tropicalis ID 94-13) it was 1 µg/mL (≈ 1.08 µM); in the experiment with Candida tropicalis (Candida tropicalis ID 94-14), 2 µg/mL (≈ 2.16 µM). For the same compound, the MIC with Aspergillus fumigatus turned out to be 1 µg/mL (≈ 1.08 µM); against Candida lusitaniae, 1 µg/mL (≈ 1.08 µM); with Candida zeylanoided, 1 µg/mL (≈ 1.08 µM); with Candida glabrata, 1 µg/mL (≈ 1.08 µM); in the experiment with Candida rugosa, 2 µg/mL (≈ 2.16 µM); with Candida albicans (Candida albicans ID 94-1), 2.0 µg/mL (≈ 2.16 µM). Moreover, the MIC in the experiment with Candida albicans (Candida albicans ID 1063) was 2 µg/mL (≈ 2.16 µM); with Candida albicans (Candida albicans ID 1117), 1 µg/mL (≈ 1.08 µM); in the experiment on Candida albicans (Candida albicans ID ATCC 90028), 1 µg/mL (≈ 1.08 µM); against Candida albicans (Candida albicans ID C-83), 2 µg/mL (≈ 2.16 µM).

One may read the MIC as the least concentration at which growth counts as inhibited.
